Results: patent publication US7462598B2, “Antimicrobial theta defensins, analogs thereof, and methods of use” (priority 2002, dated 2008)
Bridge positions count the residues as written; N and C are the ends. Peptide text beside a SMILES is read from it.

What was measured:
[1] = test system: S. aureus 502a, E. coli ML35, and C. albicans 16820; assay: Cell-suspension microbicidal assay, statements across the test organisms (lowest MMC, overall ranges); format: cell-based; settings: peptide concentration that kill 99.9% of either S. aureus, E. coli, or C. albicans; lowest MMC value
Method: (§1) To test microbicidal activities, the activities of each peptide against S. aureus 502a, E. coli ML35, and C. albicans 16820 were assessed essentially as described in Example I with modifications to allow for simultaneous analysis of all twenty peptides. Briefly, two-fold serial dilutions of each peptide (in 0.01% acetic acid 0.062-8.0 μg/ml final concentrations) were mixed with 10 mM PIPES, pH 7.4, containing 5 mM glucose in sterile polystyrene 96-well plates (Corning, N.Y.). Aliquots of log-phase bacteria or yeast were added to a 2×10^6 CFU/ml final density as determined by A620. After 2 h incubation at 37° C., 15 μl of the incubation mixture was removed and serially diluted ten-fold from 1:10 to 1:10^6 in trypticase soy broth (bacteria) or Sabaraud dextrose broth (C. albicans). The diluted cell suspensions were grown 24-48 h at 37° C. until cell pellets were visible. Microbicidal activity was determined as absence of growth and was correlated to CFU/ml in control experiments where activity was determined in parallel by colony counting (see Example I). Absence of growth at the 1:10^3 dilution is equivalent to a 3-log reduction in microbial viability.
(§2) The microbicidal activities of each peptide against E. coli ML35, S. aureus 502a, and C. albicans 16820 were determined with cell-suspension microbicidal assays in 96-well plates (see Example II). Briefly, log-phase cells (2×10^6 CFU/ml final) were incubated with increasing concentrations of peptides (0-8 μg/ml final) in 50 μl of 10 mM PIPES, 5 mM glucose, pH 7.4, for 2 h at 37° C. Incubation mixtures were diluted 1:10 to 1:10^6 with trypticase-soy broth (bacteria) or Sabaraud dextrose broth (fungi) and incubated at 37° C. for 24-48 h until cell pellets were visible. Microbicidal activities (confirmed in control experiments as described in Example II) were determined as the absence of a cell pellet in the various dilutions. Peptide concentrations that caused ≧99.9% killing (absence of a cell pellet at 1:10^3 dilution) were taken as the minimum microbicidal concentrations (MMC).
(§3) A selectivity index (SI=H/M) was calculated as a ratio of a peptide concentration (μg/ml) that causes 3% hemolysis (H) obtained from a dose-dependent hemolysis plot over 0.3 to 3 μg/ml of each peptide in PBS and the lowest MMC value (M) for any of the three test microorganisms (see Example II; Table 2).

[2] = test system: C. albicans 16820; assay: Cell-suspension microbicidal assay (MMC); format: cell-based, Candida albicans; settings: for MMC, C. albicans: lowest concentration that reduced cell viability by 99.9%, 10 mM PIPES, 5 mM glucose, pH 7.4, 2 h 37° C.
Method: as §1, §2

[3] = test system: E. coli ML35; assay: Membrane permeabilization assay (ONPG hydrolysis); format: cell-based, Escherichia coli; settings: rates at 1 μg/ml concentration of each peptide
Method: For the membrane permeabilization assay, the permeabilization of bacterial cytoplasmic membranes was determined by measuring hydrolysis of o-nitrophenyl-β-D-galactcpyranoside (ONPG) in E. coli ML35 (Sitaram et al., FEBS Lett. 303:265-268 (1992); Lehrer et al.,. J. Immunol. Methods 108:153-158 (1988)). Peptides dissolved in 5 μl of 0.01% acetic acid were two-fold serially diluted with 10 mM PIPES, pH 7.4, containing 3 mM ONPG, to final peptide concentrations of 0-8.0 μg/ml. Log-phase bacteria, prepared in PIPES buffer as described for the microbicidal assay (see Example I), were added to 1×10^6 CFU/ml final density in a final volume of 90 μl. ONPG hydrolysis was measured at 405 nm for 60 min using a SpectraMAX 190 plate reader and SOFTmaxPRO 3.1 (Molecular Devices Corp., CA). […]

[4] = test system: E. coli ML35; assay: Cell-suspension microbicidal assay (MMC); format: cell-based, Escherichia coli; settings: for MMC, E. coli: lowest concentration that reduced cell viability by 99.9%, 10 mM PIPES, 5 mM glucose, pH 7.4, 2 h 37° C.
Method: as §1, §2

[5] = test system: S. aureus 502a; assay: Cell-suspension microbicidal assay (MMC); format: cell-based, Staphylococcus aureus; settings: for MMC, S. aureus: lowest concentration that reduced cell viability by 99.9%, 10 mM PIPES, 5 mM glucose, pH 7.4, 2 h 37° C.
Method: as §1, §2

[6] = test system: human erythrocytes; assay: Hemolysis assay; format: cell-based
Method: For the hemolysis assay, the hemolytic activity of each peptide was determined by the method of Tam et al. (Tam et al., Eur. J. Biochem. 267:3289-3300 (2000)). Blood was obtained from a healthy donor in accordance to a protocol approved by the Institutional Review Board. Normal human serum was prepared from the same individual and stored at −20° C. Red blood cells (RBC) were prepared from blood collected in EDTA. RBC were harvested at 234×g for 10 min, 22° C., washed four times with 10 mM sodium phosphate, 150 mM NaCl, pH 7.4 (PBS), containing 4 mM EDTA and resuspended in PBS without EDTA. Peptides dissolved in 10 μl 0.01% HOAc were diluted with PBS to final concentrations of 0.3-100 μg/ml. RBC were added to a 2% final density in 100 μl. Incubation mixtures were also prepared with 10% serum. After 1 h incubation at 37° C., the cell suspensions were centrifuged at 234×g for 10 min, 22° C. Fifty-μl samples of the supernatants were removed, and the absorbance at 405 nm (A) was measured. Hemolytic activity of each peptide was calculated relative to lysis by 1% NP-40 using the following formula:
as §3

[7] = carboxamide versus C-terminal acid of the same acyclic θ-defensin

Compound	M [1] [µg/mL]	fold lower candidacidal activity than 3cys 3:1 PG-1-OH ([2]; from MMC, Table 2)	MMC, C. albicans [2] [µg/mL]	ONPG hydrolysis [3]	MMC, E. coli [4] [µg/mL]	fold lower staphylocidal activity than 3cys 3:1 PG-1-OH ([5]; from MMC, Table 2)	MMC, S. aureus [5] [µg/mL]	fold lower candidacidal potency than native PG-1 ([2]; from MMC, Table 2) [fold]	fold lower staphylocidal potency than native PG-1 ([5]; from MMC, Table 2) [fold]	hemolysis [6]	fold higher potency against C. albicans than the peptide acid analog [2, 7]	fold higher potency against E. coli than the peptide acid analog [4, 7]	fold reduction of staphylocidal potency relative to the peptide acid analog [5, 7] [fold]
CC(C)[C@@H]1NC(=O)[C@@H]2CSSC[C@H](NC(=O)[C@H](CCCNC(=N)N)NC(=O)[C@@H](NC(=O)CNC(=O)CN)CSSC[C@@H](C(=O)N[C@@H](CCCNC(=N)N)C(=O)N[C@@H](CCCNC(=N)N)C(=O)O)NC1=O)C(=O)N[C@@H](Cc1ccc(O)cc1)C(=O)N[C@H]1CSSC[C@H](NC(=O)[C@H](Cc3ccccc3)NC(=O)[C@H](CCCNC(=N)N)NC(=O)[C@H](CCCNC(=N)N)NC(=O)[C@H](CCCNC(=N)N)NC1=O)C(=O)N[C@@H](C(C)C)C(=O)N2 [3cys 2:2 PG-1-OH] (H-GGCRCYCRRRFCVCVCRR-OH; disulfide 3-16, 5-14, 7-12; N-terminus assumed)	1	2-4 fold	4.0	13.0 (A405/sec) · 10^−5	1.0	2-4 fold	2.0	–	–	–	–	–	–
CC(C)[C@@H]1NC(=O)[C@@H]2CSSC[C@H](NC(=O)[C@H](CCCNC(=N)N)NC(=O)[C@@H](NC(=O)CNC(=O)CNC(=O)[C@@H](N)CCCNC(=N)N)CSSC[C@@H](C(=O)N[C@@H](CCCNC(=N)N)C(N)=O)NC1=O)C(=O)N[C@@H](Cc1ccc(O)cc1)C(=O)N[C@H]1CSSC[C@H](NC(=O)[C@H](Cc3ccccc3)NC(=O)[C@H](CCCNC(=N)N)NC(=O)[C@H](CCCNC(=N)N)NC(=O)[C@H](CCCNC(=N)N)NC1=O)C(=O)N[C@@H](C(C)C)C(=O)N2 [3cys 3:1 PG-1-NH] (H-RGGCRCYCRRRFCVCVCR-NH2; disulfide 4-17, 6-15, 8-13; N-terminus assumed)	1.5	–	4.0	12.3 (A405/sec) · 10^−5	1.5	–	2.0	5	5	–	–	–	–
CC(C)[C@@H]1NC(=O)[C@@H]2CSSC[C@H](NC(=O)[C@H](CCCNC(=N)N)NC(=O)[C@@H](NC(=O)CNC(=O)CNC(=O)[C@@H](N)CCCNC(=N)N)CSSC[C@@H](C(=O)N[C@@H](CCCNC(=N)N)C(=O)O)NC1=O)C(=O)N[C@@H](Cc1ccc(O)cc1)C(=O)N[C@H]1CSSC[C@H](NC(=O)[C@H](Cc3ccccc3)NC(=O)[C@H](CCCNC(=N)N)NC(=O)[C@H](CCCNC(=N)N)NC(=O)[C@H](CCCNC(=N)N)NC1=O)C(=O)N[C@@H](C(C)C)C(=O)N2 [3cys 3:1 PG-1-OH] (H-RGGCRCYCRRRFCVCVCR-OH; disulfide 4-17, 6-15, 8-13; N-terminus assumed)	0.5	–	1.5	11.0 (A405/sec) · 10^−5	1.5	–	0.5	–	–	–	–	–	–
CC(C)[C@@H]1NC(=O)[C@@H]2CSSC[C@H](NC(=O)[C@H](CCCNC(=N)N)NC(=O)[C@@H]3CSSC[C@H](NC1=O)C(=O)N[C@@H](CCCNC(=N)N)C(=O)N[C@@H](CCCNC(=N)N)C(=O)NCC(=O)NCC(=O)N3)C(=O)N[C@@H](Cc1ccc(O)cc1)C(=O)N[C@H]1CSSC[C@H](NC(=O)[C@H](Cc3ccccc3)NC(=O)[C@H](CCCNC(=N)N)NC(=O)[C@H](CCCNC(=N)N)NC(=O)[C@H](CCCNC(=N)N)NC1=O)C(=O)N[C@@H](C(C)C)C(=O)N2 [3cys cPG-1] (cyclo(GGCRCYCRRRFCVCVCRR); disulfide 3-16, 5-14, 7-12)	0.5	–	2.5	10.7 (A405/sec) · 10^−5	1.3	–	0.5	3	–	5-6%	–	–	–
CC(C)C[C@H](NC(=O)[C@H](CCCNC(=N)N)NC(=O)CNC(=O)CN)C(=O)N[C@H]1CSSC[C@@H](C(=O)N[C@H](C(=O)NCC(=O)N[C@@H](CCCNC(=N)N)C(=O)N[C@@H](CCCNC(=N)N)C(=O)O)C(C)C)NC(=O)[C@H](C(C)C)NC(=O)[C@@H]2CSSC[C@H](NC(=O)[C@H](Cc3ccc(O)cc3)NC1=O)C(=O)N[C@@H](CCCNC(=N)N)C(=O)N[C@@H](CCCNC(=N)N)C(=O)N[C@@H](CCCNC(=N)N)C(=O)N[C@@H](Cc1ccccc1)C(=O)N2 [4:4 PG-1-OH] (H-GGRLCYCRRRFCVCVGRR-OH; disulfide 5-14, 7-12; N-terminus assumed)	1	–	2.5	12.1 (A405/sec) · 10^−5	1.0	–	1.0	–	–	–	–	–	–
CC(C)C[C@@H]1NC(=O)[C@@H]2CSSC[C@H](NC(=O)[C@H](CCCNC(=N)N)NC(=O)[C@@H](NC(=O)[C@@H](NC(=O)CN)C(C)C)CSSC[C@@H](C(=O)N[C@@H](CCCNC(=N)N)C(=O)N[C@@H](CCCNC(=N)N)C(N)=O)NC1=O)C(=O)N[C@@H](CC(C)C)C(=O)N[C@H]1CSSC[C@H](NC(=O)[C@H](C(C)C)NC(=O)CNC(=O)[C@H](CCCNC(=N)N)NC(=O)[C@H](CCCNC(=N)N)NC1=O)C(=O)N[C@@H](CCCNC(=N)N)C(=O)N2 [aRTD-3-NH] (H-GVCRCLCRRGVCRCLCRR-NH2; disulfide 3-16, 5-14, 7-12; N-terminus assumed)	0.75	–	0.8	9.7 (A405/sec) · 10^−5	1.0	–	4.5	–	–	–	2- to 4 fold	2- to 4 fold	3
